What is called IC50 is the concentration that inhibits the measured activity by half. Low values mean higher potency, high ones lower potency. By inhibition is commonly meant the drop in the measured response relative to a control, in per cent. High values mean strong suppression, low ones little suppression.

For three compounds, IC50, inhibition and cytotoxicity results are on record in ChEMBL document CHEMBL3085753, “Bridged tricyclic sesquiterpenes from the tubercle nudibranch Phyllidia coelestis Bergh” (J Nat Prod, 2013).

The test system of series [1] is KB. The experiment in a line: Antiproliferative activity against human KB cells by SRB assay. Format: functional, cell-based.
Series [2] concerns HeLa. The experiment in a line: Antiproliferative activity against human HeLa cells by SRB assay. In kind it is functional, cell-based. (In general: In SRB staining, fixed cells bind dye roughly in proportion to their protein.)
The test system of series [3] is MCF7. The experiment in a line: Antiproliferative activity against human MCF7 cells by SRB assay. Format: functional, cell-based.
Series [4] deals with HT-29. The experiment in a line: Antiproliferative activity against human HT-29 cells at 20 uM by SRB assay. In kind it is functional.
Series [5] in a line: Cytotoxicity against human Gingival fibroblasts at 20 uM by SRB assay. The arrangement: species or system Gingival fibroblast. Particulars: read-out: INH.
Series [6] relates to HT-29. The series is described as follows: Antiproliferative activity against human HT-29 cells by SRB assay. In kind it is functional, cell-based.

Consider `CC(C)[C@@H]1C[C@@]2(C)[C@@H]3CC[C@@](C)(C[C@@H]31)[C@@H]2NC=O` (relative stereo), for which the IC50 in series [1] is 1200 nM; in series [2], 70 nM; in series [3], 8200 nM. The inhibition at 20 µM in series [4] was determined as 35%. In addition, the cytotoxicity at 20 µM in series [5] amounted to 25%.
Regarding `CC(C)[C@@H]1C[C@@]2(C)[C@@H]3CC[C@](C)(NC=O)[C@H]2C[C@@H]31` (relative stereo), the half-inhibitory concentration (IC50) is 2400 nM in series [1], 130 nM in series [2], 650 nM in series [3] and 6800 nM in series [6]. Moreover, in series [5], the cytotoxicity at 20 µM is 65%.
`CC[C@@]1(O)C(=O)OCc2c1cc1n(c2=O)Cc2cc3ccccc3nc2-1` [CAMPTOTHECIN]: the IC50 in series [1] turned out to be 20 nM; in series [2], 130 nM; in series [3], 3.3 nM; in series [6] it was 0.7 nM.
